The text below walks through data of ChEMBL document CHEMBL1149004, “Ficulinic acid A and B, two novel cytotoxic straight-chain acids from the sponge Ficulina ficus” (1986).

One experiment relates to L1210. Put plainly: Cytotoxicity against mouse L1210 cells assessed as inhibition of DNA synthesis by [3H]thymidine incorporation assay. The experiment is classed as functional. Particulars: read-out: ID50 (the source's name). A general note: Incorporation of labelled thymidine or its analogues reports DNA synthesis.
The test system of the next experiment is Walker 256. The experiment is described as follows: Growth inhibition of rat Walker 256 cells. The experiment is classed as functional, cell-based.

In brackets after ≈: the same amount, converted by molar mass. Activity calls are given as the source filed them. No cut-off for these calls is given here.

With `CCCCCCC/C=C/C(=O)CCCCCCCC(CCCCCCC)C(=O)O` (stereo not drawn) [FICULINIC ACID A], in the experiment on L1210, the IC50 worked out at 10 µg/mL (≈ 24.5 µM).

`CCCCCCC/C=C/C(=O)CCCCCCCCCC(CCCCCCC)C(=O)O` (stereo not drawn) [FICULINIC ACID B]: in the experiment with L1210, the IC50 stood at 12 µg/mL (≈ 27.5 µM).

With `CCCCC/C=C\CCC(=O)CCCCCCO`, the outcome with Walker 256 was Active.
